Drawing on ChEMBL document CHEMBL1127898, “The role of oxygen in the photoinduced antiviral activity of hypericin” (1994), this text covers Infectious virus for 1 molecule.

Common to all, as to type: functional
In experiment [1] the test system is Equine infectious anemia virus. Briefly: Antiviral activity against equine infectious anemia virus (EIAV) in deoxygenation condition effected by using beta-carotene at a concentration of 32 uM.
For experiment [2], the system named is Equine infectious anemia virus. Briefly: Antiviral activity against equine infectious anemia virus (EIAV) in deoxygenation condition effected by using beta-carotene at a concentration of 64 uM.
Experiment [3] relates to Equine infectious anemia virus. Briefly: Antiviral activity against equine infectious anemia virus (EIAV) in deoxygenation condition effected by using beta-carotene at a concentration of 0 uM.
Experiment [4] relates to Equine infectious anemia virus. Briefly: Antiviral activity against equine infectious anemia virus (EIAV) in deoxygenation condition effected by using beta-carotene at a concentration of 80 uM.
Experiment [5] deals with Equine infectious anemia virus. Briefly: Antiviral activity against equine infectious anemia virus (EIAV) in hypoxic condition obtained by passing nitrogen gas, after 10 min of illumination using focal, immunoassay.
Experiment [6] deals with Equine infectious anemia virus. Briefly: Antiviral activity against equine infectious anemia virus (EIAV) in hypoxic condition obtained by passing argon gas, after 0 min of illumination, using focal immunoassay.
Experiment [7] concerns Equine infectious anemia virus. Briefly: Antiviral activity against equine infectious anemia virus (EIAV) in hypoxic condition obtained by passing argon gas, after 10 min of illumination, using focal immunoassay.
The test system of experiment [8] is Equine infectious anemia virus. Briefly: Antiviral activity against equine infectious anemia virus (EIAV) in hypoxic condition obtained by passing nitrogen gas, after 0 min of illumination using focal, immunoassay.
Experiment [9] concerns Equine infectious anemia virus. Briefly: Antiviral activity against equine infectious anemia virus (EIAV) in oxygenated condition after 10 min of illumination, using focal immunoassay.

As to `Cc1cc(O)c2c(=O)c3c(O)cc(O)c4c5c(O)cc(O)c6c(=O)c7c(O)cc(C)c8c1c2c(c34)c(c78)c65` [HYPERICIN], the Infectious virus was determined as 0 ffu ml-1 in [1]; 0 ffu ml-1 in [2]; 0 ffu ml-1 in experiment [3]; 0 ffu ml-1 in experiment [4]; 25 ffu ml-1 in experiment [5]; 5975 ffu ml-1 in experiment [6]. For the same molecule, the figures for the Infectious virus in experiment [7], in experiment [8] and in experiment [9] were 225 ffu ml-1, 14500 ffu ml-1 and 0 ffu ml-1, respectively.
